We go through 4 molecules from ChEMBL document CHEMBL1201862, “PubChem BioAssay data set” (2004).

Among the test systems are K562; SK-OV-3; Hs-578T; LOX IMVI; T47D; SW-620; KM12; OVCAR-4; SNB-75; SR; MDA-MB-231; SK-MEL-2; 786-0; SNB-19; TK-10; M14; SF-295; MDA-MB-435; HCT-15; HOP-92.
What all share (assay): NCI anticancer screen, dose series, 48 h

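Dose response: 5 concentrations. Exposure: 48 h. Format: 96-well plates. Endpoint: linear interpolation; highest concentration if not reached. Here, GI50 denotes the concentration required for 50% inhibition of growth.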 Activity calls are given as the source filed them. Rule as the data show it: active = GI50 up to about 1.1 µM and inactive = higher. Bounds are passed on as bounds.

For the molecule `CCOP(=O)(OCC)[C@]12C[C@@H](C)C=C[C@H]1COC2=O`, the GI50 in the assay with K562, with SK-OV-3, in the assay on Hs-578T, in the assay with LOX IMVI, with T47D and in the assay with SW-620 was > 100 µM (inactive) throughout. The GI50 in the assay on KM12, with OVCAR-4, in the assay with SNB-75, with SR, in the assay on MDA-MB-231 and in the assay with SK-MEL-2 was > 100 µM (inactive) each time. Moreover, the GI50 in the assay on 786-0, in the assay on SNB-19, in the assay with TK-10, in the assay with M14, with SF-295 and with MDA-MB-435 was > 100 µM (inactive) throughout.

`O=c1[nH]nc(Cc2ccccc2)n1/N=C/c1cccnc1`: the GI50 was > 100 µM (inactive) in the assay with K562; > 100 µM in the assay with HCT-15; > 100 µM (inactive) in the assay on Hs-578T; > 100 µM (inactive) with LOX IMVI; > 100 µM (inactive) in the assay with T47D; > 100 µM (inactive) in the assay on SW-620. Also, the GI50 in the assay on KM12 is 27.3 µM (inactive); in the assay with OVCAR-4, > 100 µM (inactive); in the assay with SNB-75 it was > 100 µM (inactive); in the assay with SR, > 100 µM (inactive); in the assay with MDA-MB-231, > 100 µM (inactive); with 786-0 it was > 100 µM (inactive). For the same molecule, the GI50 in the assay on HOP-92, with SNB-19, in the assay with TK-10, in the assay with M14, with SF-295 and with MDA-MB-435 was > 100 µM (inactive) in each case.

Regarding `CCN(CC)C(=S)N/N=C/c1cc([N+](=O)[O-])ccc1O`, the GI50 was 3.18 µM (inactive) in the assay on K562; 3.95 µM (inactive) in the assay with SK-OV-3; 3.62 µM in the assay on HCT-15; 53.2 µM (inactive) in the assay on Hs-578T; 3.01 µM (inactive) with LOX IMVI; 5.13 µM (inactive) in the assay with T47D. Also, the GI50 in the assay on SW-620 was 6.35 µM (inactive); in the assay on KM12, 4.07 µM (inactive); in the assay with OVCAR-4, 3.65 µM (inactive); in the assay with SNB-75 it was 9.27 µM (inactive); with SR, 1.74 µM (inactive); with MDA-MB-231 it was 8.18 µM (inactive). Besides, the GI50 is 16.4 µM (inactive) with SK-MEL-2; 2.99 µM (inactive) in the assay on 786-0; 9.16 µM (inactive) with SNB-19; 8.87 µM (inactive) with TK-10; 4.17 µM (inactive) in the assay on M14; 4.56 µM (inactive) in the assay on SF-295. Moreover, the GI50 with MDA-MB-435 was 5.48 µM (inactive).

For `Cn1c2ccccc2c(=O)c2c(O)cc3c(c21)C1OCC(C)(O)C1O3` (stereo unspecified), the GI50 was 53.3 µM (inactive) in the assay on K562; 37.2 µM (inactive) with SK-OV-3; 53.3 µM with HCT-15; 6.47 µM (inactive) in the assay on Hs-578T; 42.7 µM (inactive) in the assay on T47D; 80 µM (inactive) in the assay on SW-620. The GI50 with OVCAR-4 is > 100 µM (inactive); in the assay on SNB-75, 22.9 µM (inactive); in the assay on SR, 46.7 µM (inactive); in the assay with MDA-MB-231, > 100 µM (inactive); in the assay on SK-MEL-2, 28.3 µM (inactive); in the assay with 786-0, 39.2 µM (inactive). In addition, the GI50 was 26.6 µM (inactive) in the assay on SNB-19, 82 µM (inactive) with TK-10, > 100 µM (inactive) in the assay with M14 and > 100 µM (inactive) in the assay with MDA-MB-435.
